Test results: patent US20210403435A1, “HERBICIDAL COMPOUNDS” (SYNGENTA CROP PROTECTION AG, priority 2018, published 2021)
Structures can show the parent of a compound that is named as a salt. Where two headings read alike, the source gives them in different places.

Assays:
Experiment in all cases: Post-emergence efficacy, glasshouse, evaluated after 13 days
Type in all cases: in vivo
Eleusine indica (ELEIN) = conditions: Eleusine indica, 312 h, read-out: Control of weed species ELEIN (100=total damage to plant; 0=no damage to plant)
Method: (§1) Seeds of a variety of test species were sown in standard soil in pots. After cultivation for 14 days (post-emergence) under controlled conditions in a glasshouse (at 24/16° C., day/night; 14 hours light; 65% humidity), the plants were sprayed with an aqueous spray solution derived from the dissolution of the technical active ingredient formula (I) in a small amount of acetone and a special solvent and emulsifier mixture referred to as IF50 (11.12% Emulsogen EL360 TM+44.44% N-methylpyrrolidone+44.44% Dowanol DPM glycol ether), to create a 50 g/l solution which was then diluted to required concentration using 0.25% or 1% Empicol ESC70 (Sodium lauryl ether sulphate)+1% ammonium sulphate as diluent.
(§2) The test plants were then grown in a glasshouse under controlled conditions (at 24/16° C., day/night; 14 hours light; 65% humidity) and watered twice daily. After 13 days the test was evaluated (100=total damage to plant; 0=no damage to plant).
(§3) Ipomoea hederacea (IPOHE), Euphorbia heterophylla (EPHHL), Chenopodium album (CHEAL), Amaranthus palmeri (AMAPA), Lolium perenne (LOLPE), Digitaria sanguinalis (DIGSA), Eleusine indica (ELEIN), Echinochloa crus-galli (ECHCG), Setaria faberi (SETFA)

[1] = system: Echinochloa crus-galli (ECHCG); conditions: Echinochloa crus-galli, 312 h, read-out: Control of weed species ECHCG (100=total damage to plant; 0=no damage to plant)
Method: as §1, §2, §3

[2] = system: Amaranthus palmeri (AMAPA); conditions: Amaranthus palmeri, 312 h, read-out: Control of weed species AMAPA (100=total damage to plant; 0=no damage to plant)
Method: as §1, §2, §3

[3] = system: Ipomoea hederacea (IPOHE); conditions: Ipomoea hederacea, 312 h, read-out: Control of weed species IPOHE (100=total damage to plant; 0=no damage to plant)
Method: as §1, §2, §3

[4] = system: Chenopodium album (CHEAL); conditions: Chenopodium album, 312 h, read-out: Control of weed species CHEAL (100=total damage to plant; 0=no damage to plant)
Method: as §1, §2, §3

Setaria faberi (SETFA) = conditions: Setaria faberi, 312 h, read-out: Control of weed species SETFA (100=total damage to plant; 0=no damage to plant)
Method: as §1, §2, §3

[5] = system: Digitaria sanguinalis (DIGSA); conditions: Digitaria sanguinalis, 312 h, read-out: Control of weed species DIGSA (100=total damage to plant; 0=no damage to plant)
Method: as §1, §2, §3

[6] = system: Euphorbia heterophylla (EPHHL); conditions: Euphorbia heterophylla, 312 h, read-out: Control of weed species EPHHL (100=total damage to plant; 0=no damage to plant)
Method: as §1, §2, §3

Lolium perenne (LOLPE) = conditions: Lolium perenne, 312 h, read-out: Control of weed species LOLPE (100=total damage to plant; 0=no damage to plant)
Method: as §1, §2, §3

[7] = post-emergence application, 500 g/Ha, evaluated after 13 days

SMILES | pest or weed control at 500 g/ha (Eleusine indica (ELEIN); [7]) [%] | pest or weed control at 500 g/ha [1, 7] [%] | pest or weed control at 500 g/ha [2, 7] [%] | pest or weed control at 500 g/ha [3, 7] [%] | pest or weed control at 500 g/ha [4, 7] [%] | pest or weed control at 500 g/ha (Setaria faberi (SETFA); [7]) [%] | pest or weed control at 500 g/ha [5, 7] [%] | pest or weed control at 500 g/ha [6, 7] [%] | pest or weed control at 500 g/ha (Lolium perenne (LOLPE); [7]) [%] | pest or weed control at 500 g/ha (Eleusine indica (ELEIN); post-emergence) [%] | pest or weed control at 500 g/ha ([1]; post-emergence) [%] | pest or weed control at 500 g/ha ([2]; post-emergence) [%] | pest or weed control at 500 g/ha ([3]; post-emergence) [%] | pest or weed control at 500 g/ha ([4]; post-emergence) [%] | pest or weed control at 500 g/ha (Setaria faberi (SETFA); post-emergence) [%] | pest or weed control at 500 g/ha ([5]; post-emergence) [%] | pest or weed control at 500 g/ha ([6]; post-emergence) [%] | pest or weed control at 500 g/ha (Lolium perenne (LOLPE); post-emergence) [%]
O=C(O)CC[n+]1ccc(C(=O)NCc2ccccc2)cn1 [Compound A21] | 90 | 90 | 90 | 60 | 90 | 60 | 70 | 90 | 40 | – | – | – | – | – | – | – | – | –
O=C(O)CC[n+]1ccc(C(=O)NCc2ccc(F)cc2)cn1 [Compound A22] | 60 | 50 | 100 | 40 | 90 | 50 | 60 | 90 | 40 | – | – | – | – | – | – | – | – | –
O=C(NCc1ccc(F)cc1)c1cc[n+](CCS(=O)(=O)[O-])nc1 [Compound A23] | 60 | 70 | 100 | 50 | 70 | 70 | 60 | 60 | 20 | – | – | – | – | – | – | – | – | –
O=C(O)CC[n+]1ccc(C(=O)N2CCCCC2)cn1 [Compound A24, 3-[4-(piperidine-1-carbonyl)pyridazin-1-ium-1-yl]propanoic acid trifluoroacetate] | – | – | – | – | – | – | – | – | – | 60 | 60 | 100 | 30 | 90 | 60 | 70 | 90 | 30
O=C(NCC1CC1)c1cc[n+](CCS(=O)(=O)[O-])nc1 [Compound A25] | 90 | 70 | 100 | 60 | 90 | 80 | 80 | 80 | 60 | – | – | – | – | – | – | – | – | –
O=C(O)CC[n+]1ccc(C(=O)N2CCCC2)cn1 [Compound A26] | 80 | 90 | 100 | 40 | 100 | 100 | 100 | 90 | 90 | – | – | – | – | – | – | – | – | –
O=C(c1cc[n+](CCS(=O)(=O)[O-])nc1)N1CCCCC1 [Compound A27] | 10 | 40 | 70 | 30 | 40 | 40 | 40 | 70 | 30 | – | – | – | – | – | – | – | – | –
O=C(c1cc[n+](CCS(=O)(=O)[O-])nc1)N1CCOCC1 [Compound A28] | 70 | 50 | 100 | 60 | 90 | 70 | 70 | 80 | 60 | – | – | – | – | – | – | – | – | –
O=C(O)CC[n+]1ccc(C(=O)N2CCOCC2)cn1 [Compound A29] | 90 | 90 | 100 | 50 | 90 | 90 | 90 | 100 | 50 | – | – | – | – | – | – | – | – | –
O=C(NC1CC1)c1cc[n+](CCS(=O)(=O)[O-])nc1 [Compound A30] | 80 | 40 | 100 | 70 | 100 | 70 | 70 | 70 | 70 | – | – | – | – | – | – | – | – | –
O=C(O)CC[n+]1ccc(C(=O)NC2CC2)cn1 [Compound A31] | 100 | 70 | 100 | 30 | 100 | 100 | 100 | 100 | 70 | – | – | – | – | – | – | – | – | –
CC(C)N(C(=O)c1cc[n+](CCC(=O)O)nc1)C(C)C [Compound A32] | 10 | 30 | 50 | 10 | 20 | 30 | 20 | 40 | 10 | – | – | – | – | – | – | – | – | –
O=C(O)CC[n+]1ccc(C(=O)Nc2ccccc2)cn1 [Compound A33] | 90 | 60 | 100 | 30 | 80 | 60 | 60 | 50 | 70 | – | – | – | – | – | – | – | – | –
CC(C)N(C)C(=O)c1cc[n+](CCC(=O)O)nc1 [Compound A34] | 20 | 30 | 100 | 20 | 40 | 70 | 70 | 70 | 30 | – | – | – | – | – | – | – | – | –
CC(C)CNC(=O)c1cc[n+](CCC(=O)O)nc1 [Compound A35] | 100 | 60 | 100 | 50 | 90 | 90 | 80 | 100 | 70 | – | – | – | – | – | – | – | – | –
O=C(NCC(F)(F)F)c1cc[n+](CCS(=O)(=O)[O-])nc1 [Compound A36] | 60 | 30 | 100 | 40 | 90 | 60 | 60 | 50 | 20 | – | – | – | – | – | – | – | – | –
